“Also recorded” adds a separate entry of the source. Where two headings read alike, the source gives them in different places.

What is called EC50 is the concentration giving half of the maximal effect.

One assay concerns ISG54 ISRE-luc reporter. The assay is described as follows: ISG54 ISRE-luc reporter activation in HEK293 (SZ14) cells, screen for STING agonists. In kind it is cell-based. The following applies: digitonin buffer, 5 hours, read-out: IRF EC50. The protocol:
(§1) ISG54 or NF-κβ activity was determined using the Steady-glo buffer system (Promega), and are expressed as EC50 values summarized in Table 3 below. […] This calculation is applicable for compounds with enzyme inhibition activity, as the baseline for an untreated sample may be set at 100% enzymatic activity, and therefore % inhibition is evaluated based on this 100% maximal basis. For these studies, the EC50 value relates to the concentration required to achieve a value 50% activity level above the untreated sample set at 0%.
(§2) Data are shown as fold induction over cells that received DMSO (compound carrier) alone as the mean, +/−standard deviation of duplicate wells per stimulant.

The next assay relates to NF-κβ-luc reporter. In words: NF-κβ-luc reporter activation in HEK293 (SZ14) cells, screen for STING agonists. In kind it is cell-based. The following applies: digitonin buffer, 5 hours, read-out: NF-KB EC50. The protocol: as §1, §2
For the next assay, the system named is A20 lymphoma. In words: Syngeneic A20 lymphoma mouse model. The assay is classed as in vivo. As to conditions: monotherapy; for tumor growth: compared with vehicle.
The next assay relates to THP1 cells and PBMCs. In words: Gene expression of ISGs and PRRs in THP1 and PBMCs (real time PCR). The following applies: 5 uM, Lipofectamine LTX, 20 h. In kind it is cell-based. On the procedure: (§3) After incubation for 20 h, RNA was extracted and gene expression of different Interferon Stimulated Genes (ISGs) and various Pattern Recognition Receptors (PRRs) was evaluated by real time PCR. Fold Induction was calculated by ΔΔct method.
as §3
(Real-time PCR tracks product formation cycle by cycle.)

A further assay concerns mouse macrophages. In words: Type I IFN signaling in mouse macrophages. The assay is classed as cell-based. The following applies: mouse macrophages (FIG. 36B). The protocol:
Activity of secreted luciferase in cell culture supernatant was measured using Invivogen Quanti-luc. Data are shown as fold induction over DMSO treated cells (mean±standard deviation of triplicate wells per stimulant).

In another assay the test system is human monocytes. In words: Activity in human monocytes. As to conditions: human monocytes (FIG. 36A). The assay is classed as cell-based.
The next assay relates to THP1 cells. The assay is described as follows: Type III IFN (IL-29) production in THP1 cells (ELISA). In kind it is cell-based. The following applies: 21 hrs. On the procedure:
Level of IL-29 in culture supernatant was determined using ELISA. Results shown are the average±standard deviation of duplicate wells.
Background: An ELISA detects its analyte on a solid surface through an enzyme-linked reagent.

The next assay concerns CT26 colon cancer. The assay is described as follows: Syngeneic CT26 colon cancer mouse model. In kind it is in vivo. As to conditions: intratumoral administration.
The mark [1] stands for this setting: vs vehicle, vehicle and Ethanol (FIG. 80).

Regarding `CCCCCCCCCCOc1ccc(C(=O)Oc2ccc(CS[P@]3(=O)OC[C@H]4O[C@@H](n5cnc6c(N)ncnc65)[C@H](F)[C@@H]4OP(=O)(O)OC[C@H]4O[C@@H](n5ccc(=O)[nH]c5=O)[C@H](F)[C@@H]4O3)cc2)cc1.N` (single isomer, unassigned) [Cmd 1A], the EC50 in the assay on ISG54 ISRE-luc reporter was below 0.05 µM. Besides, the EC50 with NF-κβ-luc reporter lay in the range of 0.05 to 0.5 µM. In the assay with A20 lymphoma, the survival rate result is “significantly improve the survival rate” and the tumor growth result was “inhibit mouse A20 B cell lymphoma tumor cells”.

In the case of `CCCCCCCCCCOc1ccc(C(=O)Oc2ccc(CS[P@@]3(=O)OC[C@H]4O[C@@H](n5cnc6c(N)ncnc65)[C@H](F)[C@@H]4OP(=O)(O)OC[C@H]4O[C@@H](n5ccc(=O)[nH]c5=O)[C@H](F)[C@@H]4O3)cc2)cc1` (single isomer, unassigned) [Cmd 1B], the EC50 was below 0.05 µM with ISG54 ISRE-luc reporter and 0.05 to 0.5 µM with NF-κβ-luc reporter.

Consider `Nc1ncnc2c1ncn2[C@@H]1O[C@@H]2COP(=O)(S)O[C@H]3[C@@H](F)[C@H](n4ccc(=O)[nH]c4=O)O[C@@H]3COP(=O)(S)O[C@H]2[C@H]1F` (some centres unmarked) [Cmd 2], for which the EC50 was 1 to 2 µM in the assay with ISG54 ISRE-luc reporter (Homo sapiens) and above 2 µM in the assay with NF-κβ-luc reporter (Homo sapiens).

`CCCCCCCCCCOc1ccc(C(=O)Oc2ccc(CSP3(=O)OC[C@H]4O[C@@H](n5cnc6c(N)ncnc65)[C@H](F)[C@@H]4OP(=O)(SCc4ccc(OC(=O)c5ccc(OCCCCCCCCCC)cc5)cc4)OC[C@H]4O[C@@H](n5ccc(=O)[nH]c5=O)[C@H](F)[C@@H]4O3)cc2)cc1` (some centres unmarked) [Cmd 4]: the values for the EC50 with ISG54 ISRE-luc reporter and with NF-κβ-luc reporter were 1 to 2 µM and above 2 µM, respectively. In addition, in the assay on THP1 cells and PBMCs, the “induction of ISG and PRR-associated genes, THP1 compared to PBMCs” value was “Enhanced Activity”.

For the compound `CC(C)OC(=O)OCSP1(=O)OC[C@H]2O[C@@H](n3cnc4c(N)ncnc43)[C@H](F)[C@@H]2OP(=O)(O)OC[C@H]2O[C@@H](n3ccc(=O)[nH]c3=O)[C@H](F)[C@@H]2O1.N` (some centres unmarked) [Cmd 5], the EC50 with ISG54 ISRE-luc reporter and in the assay on NF-κβ-luc reporter was above 2 µM in each case. The “activity relative to natural STING ligand 3′,3′-cGAMP” value in the assay on mouse macrophages and with human monocytes was “more active” throughout.

Take `CCCCCCCCOc1ccc(C(=O)Oc2ccc(CSP3(=O)OC[C@H]4O[C@@H](n5cnc6c(N)ncnc65)[C@H](F)[C@@H]4OP(=O)(O)OC[C@H]4O[C@@H](n5ccc(=O)[nH]c5=O)[C@H](F)[C@@H]4O3)cc2)cc1.N` (some centres unmarked) [Cmd 12]: the EC50 in the assay with ISG54 ISRE-luc reporter and in the assay on NF-κβ-luc reporter was below 0.05 µM in each case. Besides, the “activity relative to natural STING ligand 3′,3′-cGAMP” value in the assay with mouse macrophages and with human monocytes was “more active” each time.

Take `CCCCCCCCCCCC(=O)Oc1ccc(CSP2(=O)OC[C@H]3O[C@@H](n4cnc5c(N)ncnc54)[C@H](F)[C@@H]3OP(=O)(O)OC[C@H]3O[C@@H](n4ccc(=O)[nH]c4=O)[C@H](F)[C@@H]3O2)cc1.N` (some centres unmarked) [Cmd 13]: the EC50 in the assay with ISG54 ISRE-luc reporter was below 0.05 µM; in the assay on NF-κβ-luc reporter, 0.05 to 0.5 µM. For the same compound, the “activity relative to natural STING ligand 3′,3′-cGAMP” value in the assay with mouse macrophages and with human monocytes was “more active” each time.

Regarding `CCCCCCOc1ccc(C(=O)Oc2ccc(CSP3(=O)OC[C@H]4O[C@@H](n5cnc6c(N)ncnc65)[C@H](F)[C@@H]4OP(=O)(O)OC[C@H]4O[C@@H](n5ccc(=O)[nH]c5=O)[C@H](F)[C@@H]4O3)cc2)cc1.N` (some centres unmarked) [Cmd 14], the EC50 in the assay on ISG54 ISRE-luc reporter and in the assay on NF-κβ-luc reporter was below 0.05 µM each time. Also, the “activity relative to natural STING ligand 3′,3′-cGAMP” value in the assay on mouse macrophages and in the assay with human monocytes was “more active” throughout.

For `CCCCCCCCCCCCOc1ccc(C(=O)Oc2ccc(CSP3(=O)OC[C@H]4O[C@@H](n5cnc6c(N)ncnc65)[C@H](F)[C@@H]4OP(=O)(O)OC[C@H]4O[C@@H](n5ccc(=O)[nH]c5=O)[C@H](F)[C@@H]4O3)cc2)cc1.N` (some centres unmarked) [Cmd 15], the EC50 in the assay with ISG54 ISRE-luc reporter and in the assay on NF-κβ-luc reporter was below 0.05 µM throughout. Moreover, the “activity relative to natural STING ligand 3′,3′-cGAMP” value in the assay with mouse macrophages and in the assay on human monocytes was “more active” in each case. Also, the “type III interferon (IL-29) production” value with THP1 cells is “induce type III interferon (IL-29) production”.

Take `CO[C@@H]1[C@@H]2OP(=O)(S)OC[C@H]3O[C@@H](n4cnc5c(N)ncnc54)C[C@@H]3OP(=O)(S)OC[C@H]2O[C@H]1n1ccc(=O)[nH]c1=O` (some centres unmarked) [Cmd 17]: the EC50 with ISG54 ISRE-luc reporter (Homo sapiens) and in the assay on NF-κβ-luc reporter (Homo sapiens) was above 2 µM each time.

Regarding `Nc1nc2c(ncn2[C@@H]2O[C@@H]3COP(=O)(S)O[C@H]4[C@@H](O)[C@H](n5cnc6c(=O)[nH]c(N)nc65)O[C@@H]4COP(=O)(S)O[C@H]3[C@H]2O)c(=O)[nH]1` (some centres unmarked) [Cmd 18], the concentration giving a half-maximal response (EC50) in the assay with ISG54 ISRE-luc reporter (Homo sapiens) and with NF-κβ-luc reporter (Homo sapiens) was above 2 µM throughout.

Consider `CCCCCCCCCCOc1ccc(C(=O)Oc2ccc(CSP3(=O)OC[C@H]4O[C@@H](n5cnc6c(N)ncnc65)C[C@@H]4OP(=O)(SCc4ccc(OC(=O)c5ccc(OCCCCCCCCCC)cc5)cc4)OC[C@H]4O[C@@H](n5ccc(=O)[nH]c5=O)[C@H](OC)[C@@H]4O3)cc2)cc1` (some centres unmarked) [Cmd 20], for which the EC50 with ISG54 ISRE-luc reporter and in the assay on NF-κβ-luc reporter was above 2 µM in each case.

`N.N.Nc1ncnc2c1ncn2[C@@H]1O[C@@H]2COP(=O)(S)O[C@H]3[C@@H](F)[C@H](n4ccc(=O)[nH]c4=O)O[C@@H]3COP(=O)(O)O[C@H]2[C@H]1F` (some centres unmarked) [Cmd 21]: the EC50 in the assay with ISG54 ISRE-luc reporter (Homo sapiens) is 0.5 to 1 µM; with NF-κβ-luc reporter (Homo sapiens), above 2 µM. Besides, in the assay on A20 lymphoma, the survival rate result is “significantly improve the survival rate”. In addition, the tumor growth entry with A20 lymphoma was “considerable tumor growth inhibition; also recorded: inhibit mouse A20 B cell lymphoma tumor cells”; in the assay on CT26 colon cancer (vs vehicle (FIG. 79)) it was “considerable tumor growth inhibition”; in the assay with CT26 colon cancer (setting [1]), “considerable tumor growth inhibition”.

On to `CCCCCCCCCCCCOc1ccc(C(=O)Oc2ccc(CS[P@@]3(=O)OC[C@H]4O[C@@H](n5cnc6c(N)ncnc65)[C@H](F)[C@@H]4OP(=O)(O)OC[C@H]4O[C@@H](n5ccc(=O)[nH]c5=O)[C@H](F)[C@@H]4O3)cc2)cc1` [Cmd 22], for which the values for the 50% effective concentration (EC50) in the assay on ISG54 ISRE-luc reporter and with NF-κβ-luc reporter were below 0.05 µM and 0.05 to 0.5 µM, respectively.

Take `CCCCCCCCCCCCOc1ccc(C(=O)Oc2ccc(CS[P@]3(=O)OC[C@H]4O[C@@H](n5cnc6c(N)ncnc65)[C@H](F)[C@@H]4OP(=O)(O)OC[C@H]4O[C@@H](n5ccc(=O)[nH]c5=O)[C@H](F)[C@@H]4O3)cc2)cc1` [Cmd 23]: the half-maximal effective concentration (EC50) in the assay with ISG54 ISRE-luc reporter is below 0.05 µM; in the assay with NF-κβ-luc reporter, 0.05 to 0.5 µM.

Take `CCCCCCCCCCOc1ccc(C(=O)Oc2ccc(CSP3(=O)OC[C@H]4O[C@@H](n5cnc6c(N)ncnc65)[C@H](F)[C@@H]4OP(=O)(O)OC[C@H]4O[C@@H](n5ccc(=O)[nH]c5=O)[C@H](F)[C@@H]4O3)cc2)c(C)c1` (some centres unmarked) [Cmd 25]: the 50% effective concentration (EC50) with ISG54 ISRE-luc reporter was below 0.05 µM; in the assay with NF-κβ-luc reporter, 0.05 to 0.5 µM. The tumor growth result in the assay on CT26 colon cancer (vs vehicle (FIG. 79)) and with CT26 colon cancer (setting [1]) was “considerable tumor growth inhibition” in each case.

Take `CCCCCCCCCCOC(=O)Oc1ccc(CSP2(=O)OC[C@H]3O[C@@H](n4cnc5c(N)ncnc54)[C@H](F)[C@@H]3OP(=O)(O)OC[C@H]3O[C@@H](n4ccc(=O)[nH]c4=O)[C@H](F)[C@@H]3O2)cc1` (some centres unmarked) [Cmd 26]: the EC50 in the assay with ISG54 ISRE-luc reporter and in the assay with NF-κβ-luc reporter was below 0.05 µM each time.

As to `CCCCCCCCCCOc1ccc(Oc2ccc(CSP3(=O)OC[C@H]4O[C@@H](n5cnc6c(N)ncnc65)[C@H](F)[C@@H]4OP(=O)(O)OC[C@H]4O[C@@H](n5ccc(=O)[nH]c5=O)[C@H](F)[C@@H]4O3)cc2)cc1` (some centres unmarked) [Cmd 29], the half-maximal effective concentration (EC50) was 0.05 to 0.5 µM with ISG54 ISRE-luc reporter and 0.5 to 1 µM with NF-κβ-luc reporter.

Consider `CCCCCCCCCCOc1ccc(C(=O)Nc2ccc(CSP3(=O)OC[C@H]4O[C@@H](n5cnc6c(N)ncnc65)[C@H](F)[C@@H]4OP(=O)(O)OC[C@H]4O[C@@H](n5ccc(=O)[nH]c5=O)[C@H](F)[C@@H]4O3)cc2)cc1` (some centres unmarked) [Cmd 30], for which the EC50 in the assay on ISG54 ISRE-luc reporter was 0.5 to 1 µM; with NF-κβ-luc reporter, above 2 µM.

For the compound `CCCCCCCCCCOc1ccc(C(=O)NCc2ccc(CSP3(=O)OC[C@H]4O[C@@H](n5cnc6c(N)ncnc65)[C@H](F)[C@@H]4OP(=O)(O)OC[C@H]4O[C@@H](n5ccc(=O)[nH]c5=O)[C@H](F)[C@@H]4O3)cc2)cc1` (some centres unmarked) [Cmd 31], the EC50 in the assay on ISG54 ISRE-luc reporter was 0.5 to 1 µM; in the assay on NF-κβ-luc reporter, above 2 µM.

On to `CCCCCCCCCCNC(=O)Oc1ccc(CSP2(=O)OC[C@H]3O[C@@H](n4cnc5c(N)ncnc54)[C@H](F)[C@@H]3OP(=O)(O)OC[C@H]3O[C@@H](n4ccc(=O)[nH]c4=O)[C@H](F)[C@@H]3O2)cc1` (some centres unmarked) [Cmd 32], for which the concentration for a half-maximal effect (EC50) in the assay on ISG54 ISRE-luc reporter and in the assay with NF-κβ-luc reporter was 0.05 to 0.5 µM each time.

These data come from patent US11033569B2, “Compounds,Compositions, and methods for the treatment of disease” (Sperovie Biosciences, Inc., priority 2016, dated 2021).
